Source: ChEMBL document CHEMBL1201862, “PubChem BioAssay data set” (2004)
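Growth conditions: 96-well plates. Treatment: test compound, 48 hours, 5 concentrations. Analysis: linear interpolation between bracketing concentrations; unreached endpoints set to highest concentration. At the GI50, growth is halved.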 Active and inactive are the calls of the source. No stated cut-off is given here; in the data, active = GI50 up to about 1.1 µM and inactive = higher. Where a SMILES comes first, the peptide text is derived from it. [ ]: non-standard residue; d: D form. Aoe = N[C@@H](CCCCCC(=O)[C@@H]1CO1)C(=O)O

Assays:
Experiment in all cases: NCI tumour cell line growth inhibition, 48 h
U-251 = test system: U-251
786-0 = test system: 786-0
MOLT-4 = test system: MOLT-4
SNB-19 = test system: SNB-19
HCT-15 = test system: HCT-15
OVCAR-8 = test system: OVCAR-8
COLO 205 = test system: COLO 205
SN12C = test system: SN12C
RXF 393 = test system: RXF 393
PC-3 = test system: PC-3
SK-MEL-2 = test system: SK-MEL-2
MDA-MB-231 = test system: MDA-MB-231
T47D = test system: T47D
UACC-257 = test system: UACC-257
HOP-92 = test system: HOP-92
NCI-H226 = test system: NCI-H226
M14 = test system: M14
MCF7 = test system: MCF7
TK-10 = test system: TK-10
SNB-75 = test system: SNB-75

SMILES	GI50 (U-251)	GI50 (786-0)	GI50 (MOLT-4)	GI50 (SNB-19)	GI50 (HCT-15) [µM]	GI50 (OVCAR-8)	GI50 (COLO 205)	GI50 (SN12C)	GI50 (RXF 393)	GI50 (PC-3)	GI50 (SK-MEL-2)	GI50 (MDA-MB-231)	GI50 (T47D)	GI50 (UACC-257)	GI50 (HOP-92)	GI50 (NCI-H226)	GI50 (M14)	GI50 (MCF7)	GI50 (TK-10)	GI50 (SNB-75)
CN1C/C(=C\c2cccs2)C2=NC(=S)NC(c3cccs3)C2C1 (centres undefined)	> 100 µM (inactive)	> 100 µM (inactive)	19.5 µM (inactive)	> 100 µM (inactive)	77.6	40.7 µM (inactive)	31.8 µM (inactive)	> 100 µM (inactive)	88.7 µM (inactive)	> 100 µM (inactive)	> 100 µM (inactive)	> 100 µM (inactive)	24.9 µM (inactive)	36.6 µM (inactive)	33.6 µM (inactive)	> 100 µM (inactive)	55.2 µM (inactive)	35.6 µM (inactive)	46.1 µM (inactive)	
CC(=O)OC1O[C@@H](C(C)(C)O)CC[C@@H]1[C@H]1CC[C@@]2(C)C3=C(CC[C@]12C)[C@@]1(C)C[C@@H](OC(=O)CC(C)(O)CC(=O)O)[C@H](OC(C)=O)C(C)(C)C1CC3 (some centres undefined)	16 µM (inactive)	19.3 µM (inactive)	19.4 µM (inactive)	17.7 µM (inactive)	22.4	17.1 µM (inactive)		19.2 µM (inactive)		17 µM (inactive)	16.4 µM (inactive)	23 µM (inactive)	19.8 µM (inactive)	17.5 µM (inactive)	16.7 µM (inactive)	21.7 µM (inactive)	19.5 µM (inactive)	18.3 µM (inactive)	19.1 µM (inactive)	
COc1cc(Cn2c3c(c4cc(O)ccc42)C(=O)c2ccccc2C3=O)cc(OC)c1	3.6 µM (inactive)	2.37 µM (inactive)	16.3 µM (inactive)	4.5 µM (inactive)	11.7	3.55 µM (inactive)	12.6 µM (inactive)	5.09 µM (inactive)	3.92 µM (inactive)	2.46 µM (inactive)	14.7 µM (inactive)	5.32 µM (inactive)	6.35 µM (inactive)	39.2 µM (inactive)	1.85 µM (inactive)		16.3 µM (inactive)	12.2 µM (inactive)	11.6 µM (inactive)	
CCOC(=O)Cn1c2ccc(Br)cc2c2nc3ccccc3nc21	> 100 µM (inactive)	> 100 µM (inactive)	> 100 µM (inactive)	> 100 µM (inactive)		> 100 µM (inactive)	> 100 µM (inactive)	> 100 µM (inactive)	> 100 µM (inactive)	> 100 µM (inactive)	> 100 µM (inactive)	> 100 µM (inactive)	> 100 µM (inactive)	> 100 µM (inactive)	> 100 µM (inactive)	> 100 µM (inactive)	> 100 µM (inactive)		> 100 µM (inactive)	> 100 µM (inactive)
CN(C)CCCN1c2ccccc2CCc2cccc([N+](=O)[O-])c21	18.2 µM (inactive)	15.3 µM (inactive)	13.7 µM (inactive)	47.2 µM (inactive)	15.6	15.9 µM (inactive)	17.8 µM (inactive)	21.3 µM (inactive)		19.8 µM (inactive)	26.5 µM (inactive)	25.2 µM (inactive)	13.7 µM (inactive)	20.4 µM (inactive)	14.4 µM (inactive)	22.6 µM (inactive)	15.7 µM (inactive)	16.8 µM (inactive)	21.5 µM (inactive)	6.34 µM (inactive)
Cc1cccc2c1Oc1cc(Cl)ccc1C2NC(=O)CCN1CCOCC1 (centres undefined)	> 100 µM (inactive)	> 100 µM (inactive)	49.4 µM (inactive)	> 100 µM (inactive)	> 100	> 100 µM (inactive)	> 100 µM (inactive)	> 100 µM (inactive)		> 100 µM (inactive)		> 100 µM (inactive)	> 100 µM (inactive)	> 100 µM (inactive)	18.1 µM (inactive)		> 100 µM (inactive)	> 100 µM (inactive)	> 100 µM (inactive)	21.8 µM (inactive)
COc1cc(N2C(=O)C(=O)C3(CCCCC3)C2=O)cc(OC)c1OC	> 100 µM (inactive)	> 100 µM (inactive)	> 100 µM (inactive)	> 100 µM (inactive)	> 100	> 100 µM (inactive)	> 100 µM (inactive)	> 100 µM (inactive)	> 100 µM (inactive)	> 100 µM (inactive)	> 100 µM (inactive)		> 100 µM (inactive)	> 100 µM (inactive)		> 100 µM (inactive)	> 100 µM (inactive)	> 100 µM (inactive)	> 100 µM (inactive)	> 100 µM (inactive)
COc1ccc(C2=CC(c3ccccc3)n3nnnc3N2)cc1 (centres undefined)	56 µM (inactive)	> 100 µM (inactive)	> 100 µM (inactive)	> 100 µM (inactive)	> 100	> 100 µM (inactive)	> 100 µM (inactive)	> 100 µM (inactive)	> 100 µM (inactive)	> 100 µM (inactive)	> 100 µM (inactive)	> 100 µM (inactive)	56.9 µM (inactive)	> 100 µM (inactive)		> 100 µM (inactive)	> 100 µM (inactive)	> 100 µM (inactive)		
CCOC(=O)C(Br)(C(N)=O)C1(O)OC(c2ccccc2)=C(Br)C1=O (centres undefined)	17.6 µM (inactive)	23.3 µM (inactive)		> 100 µM (inactive)	16.7	17.5 µM (inactive)	17 µM (inactive)	17.2 µM (inactive)	19.3 µM (inactive)	19.2 µM (inactive)	42.3 µM (inactive)	18.4 µM (inactive)	24.3 µM (inactive)	> 100 µM (inactive)		19.2 µM (inactive)	28.4 µM (inactive)	19.2 µM (inactive)	16.7 µM (inactive)	
Cc1ccc(-n2cc([Si](C)(C)C)nn2)s1	> 100 µM (inactive)	> 100 µM (inactive)		> 100 µM (inactive)	> 100	> 100 µM (inactive)	61.8 µM (inactive)	> 100 µM (inactive)		97.5 µM (inactive)	> 100 µM (inactive)	> 100 µM (inactive)	> 100 µM (inactive)	> 100 µM (inactive)	> 100 µM (inactive)	> 100 µM (inactive)	> 100 µM (inactive)	> 100 µM (inactive)	> 100 µM (inactive)	
CCNC(=O)Cc1nc2c(N)ncnc2n1C1OC(CO)C(O)C1O (centres undefined)	> 100 µM (inactive)	> 100 µM (inactive)	> 100 µM (inactive)	> 100 µM (inactive)	> 100	> 100 µM (inactive)	74 µM (inactive)	> 100 µM (inactive)		> 100 µM (inactive)	48.6 µM (inactive)	> 100 µM (inactive)	58.6 µM (inactive)	> 100 µM (inactive)	> 100 µM (inactive)	> 100 µM (inactive)	> 100 µM (inactive)	23.3 µM (inactive)	> 100 µM (inactive)	
Clc1cccc(-c2sc(-c3ccsc3)cc2Cc2ccsc2)c1		> 10 µM (inactive)	> 10 µM (inactive)		> 10	> 10 µM (inactive)	> 10 µM (inactive)	> 10 µM (inactive)	> 10 µM (inactive)	> 10 µM (inactive)		> 10 µM (inactive)	8 µM (inactive)	> 10 µM (inactive)	> 10 µM (inactive)		> 10 µM (inactive)	> 10 µM (inactive)	> 10 µM (inactive)	> 10 µM (inactive)
CC(=O)Oc1ccc(C)c2c1[C@H]1CC[C@]3(C)[C@@H](OC(C)=O)CC[C@H]3[C@@H]1CC2	15.2 µM (inactive)	21.3 µM (inactive)	16 µM (inactive)	17.9 µM (inactive)	17.8	22.4 µM (inactive)		18.8 µM (inactive)	19.1 µM (inactive)			18.2 µM (inactive)	19.3 µM (inactive)	17.9 µM (inactive)	16.9 µM (inactive)	21.8 µM (inactive)	17.5 µM (inactive)	23.6 µM (inactive)	26.5 µM (inactive)	24.9 µM (inactive)
CC1(C)[C@@H]2C[C@H]1C(Cc1cccc(C[C@H]3c4cc(-c5ccccn5)ncc4[C@H]4C[C@@H]3C4(C)C)c1)c1cc(-c3ccccn3)ncc12 (some centres undefined)	0.514 µM (active)	0.32 µM (active)	0.312 µM (active)	1.61 µM (inactive)	1.09	0.478 µM (active)	0.452 µM (active)	0.834 µM (active)	8.41 µM (inactive)	0.875 µM (active)	12.9 µM (inactive)	22.6 µM (inactive)	1.71 µM (inactive)	1.48 µM (inactive)			0.485 µM (active)	0.547 µM (active)	2.44 µM (inactive)	5.05 µM (inactive)
O=C1N[C@@H](Cc2ccccc2)C(=O)N2CCC[C@@H]2C(=O)N[C@@H](CCCCCC(=O)[C@@H]2CO2)C(=O)N[C@H]1Cc1ccccc1 [TRAPOXIN B] (cyclo(FF[dP][Aoe]))	0.0027 µM (active)	0.00294 µM (active)	< 0.000212 µM (active)	0.103 µM (active)	0.0432	< 0.000212 µM (active)	0.000778 µM (active)	0.0104 µM (active)		0.00209 µM (active)	0.00116 µM (active)	0.161 µM (active)	0.0034 µM (active)		0.00574 µM (active)	0.222 µM (active)	0.000597 µM (active)	0.000553 µM (active)	0.00368 µM (active)	0.00366 µM (active)
